Measurements taken from patent US20260224716A1, “PTH ANALOGS FOR THE TREATMENT OF HYPOPARATHYROIDISM” (priority 2020, published 2026).
One block for each compound: values may come before it. *1 amine or outer side, *2 acyl side, *3 side chain or, on linkers, in order; H or OH if unused. Where a SMILES comes first, the peptide text is derived from it. Where no end group is shown, it is not given here. Side-chain parts run from the residue outwards. [ ]: non-standard residue; d: D form. The star is where a group is joined. C18 diacid = O=C(O)CCCCCCCCCCCCCCCCC(=O)*; γGlu = O=C(O)[C@H](CCC(=O)[*:2])N[*:1]; AEEA = NCCOCCOCC(=O)O; Aib = CC(C)(N)C(=O)O

Key:
[1] = Rate of model dipeptide cleavage from hexapeptide in PBS (HPLC, LC-MS); assay type: physicochemical; conditions: for t1/2: cleavage of dipeptide A-B from model hexapeptide in PBS, 37° C., unit not given or result in words; for half-life at 1 mg/ml: buffer
Procedure: The solution was incubated at 37° C.
The flow rate was 1 ml/min.

[2] = Cleavage half-life / conversion of PTH prodrugs in PBS pH 7.4, 37° C. by LC-MS; assay type: physicochemical; conditions: PBS buffer; dipeptide cleavage from PTH prodrug, PBS pH 7.4, 37° C.; read-out: Half life (converted)
Procedure: The resulting solution was incubated at 37° C. Aliquots were taken at designed time points and analyzed by LC-MS. […] Flow rate of 1 mL/min and a gradient of 10%-80% acetonitrile in water, with 0.1% trifluoroacetic acid over 10 min. […] The concentration of prodrug and drug were determined by their relative peak areas. The […] dissociation rate constant of the prodrug was determined by plotting the logarithm in the concentration of the prodrug at various time points.

[3] = biological target: T1, PTH1 receptor (Homo sapiens, UniProt Q03431); experiment: Luciferase-based reporter gene assay for cAMP detection (HEK293 cells); assay type: cell-based; conditions: for potency at the PTH receptor: luciferase reporter of cAMP production; for EC50: HEK293 cells, PTH1 receptor, cAMP-responsive luciferase, 5 hours, read-out: Potency EC50
T1 construct: expressed in transfected cells; host or cells: HEK293
T1 sequence (Q03431 27-593): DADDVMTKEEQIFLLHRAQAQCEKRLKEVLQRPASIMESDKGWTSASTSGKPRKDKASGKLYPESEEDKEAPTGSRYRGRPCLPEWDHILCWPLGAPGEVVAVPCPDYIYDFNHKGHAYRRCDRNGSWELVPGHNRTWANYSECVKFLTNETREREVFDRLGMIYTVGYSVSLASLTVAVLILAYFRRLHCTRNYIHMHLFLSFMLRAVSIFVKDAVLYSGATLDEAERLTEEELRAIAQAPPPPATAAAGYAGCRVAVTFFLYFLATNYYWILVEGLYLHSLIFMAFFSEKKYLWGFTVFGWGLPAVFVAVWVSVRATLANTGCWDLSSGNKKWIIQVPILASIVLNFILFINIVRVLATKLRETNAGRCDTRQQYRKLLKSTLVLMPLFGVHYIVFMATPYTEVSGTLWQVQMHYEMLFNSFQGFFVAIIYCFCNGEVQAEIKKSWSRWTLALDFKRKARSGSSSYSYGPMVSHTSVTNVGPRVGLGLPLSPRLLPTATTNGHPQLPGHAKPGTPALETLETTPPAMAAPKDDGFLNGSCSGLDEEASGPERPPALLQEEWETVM
Procedure: At the end of the incubation, 50 μL of Steady-Lite Plus (PerkinElmer, Waltham, MA) were added to each well. The plate was shaken briefly, incubated four minutes and light output was measured on an EnSpire Alpha Multi-mode Plate Reader (PerkinElmer, Waltham, MA).

Compound: 7 (SVSEIQLMHNLGKHLNSMERVEWLRKKLQDVH; listed as Homo sapiens) [compound 7]
t1/2 [1]: No cleavage

Compound: 11 (XXSVSEIQLMHNLGKHLNSMERVEWLRKKLQDVHNF; SITE 1 MISC_FEATURE - Xaa at position 1 is acylated dLys; SITE 2 MISC_FEATURE - Xaa at position 2 is N-methyl Gly; listed as Homo sapiens) [compound 11]
t1/2 [1]: No cleavage

Compound: 12 (SVSEIQLMHNLGKHLNSMERVEWLRKKLQDVHNFX; VARIANT 35 MISC_FEATURE - Xaa at position 35 is an acylated Lys; SITE 35 MISC_FEATURE - C-terminal carboxyl group replaced with an amide; listed as Homo sapiens) [compound 12]
t1/2 [1]: No cleavage

Compound: 13 (XXSVSEIQLMHNLGKHLNSMERVEWLRKKLQDVHNFX; SITE 1 MISC_FEATURE - Xaa at position 1 is acylated dLys; SITE 2 MISC_FEATURE - Xaa at position 2 is N-methyl Gly; SITE 37 MISC_FEATURE - Xaa at position 37 is an acylated Lys; SITE 37 MISC_FEATURE - C-terminal carboxyl group replaced with an amide; listed as Homo sapiens) [compound 13]
t1/2 [1]: No cleavage

Compound: CC[C@H](C)[C@H](NC(=O)[C@H](CCC(=O)O)NC(=O)[C@H](CO)NC(=O)[C@@H](NC(=O)[C@H](CO)NC(=O)CN(C)C(=O)[C@H](N)CCCCNC(=O)CC[C@H](NC(=O)CCCCCCCCCCCCCCCCC(=O)O)C(=O)O)C(C)C)C(=O)N[C@@H](CCC(N)=O)C(=O)N[C@@H](CC(C)C)C(=O)N[C@@H](CCSC)C(=O)N[C@@H](Cc1c[nH]cn1)C(=O)N[C@@H](CC(N)=O)C(=O)N[C@@H](CC(C)C)C(=O)NCC(=O)N[C@@H](CCCCN)C(=O)N[C@@H](Cc1c[nH]cn1)C(=O)N[C@@H](CC(C)C)C(=O)N[C@@H](CC(N)=O)C(=O)N[C@@H](CO)C(=O)N[C@@H](CCSC)C(=O)N[C@@H](CCC(=O)O)C(=O)N[C@@H](CCCNC(=N)N)C(=O)N[C@H](C(=O)N[C@@H](CCC(=O)O)C(=O)N[C@@H](Cc1c[nH]c2ccccc12)C(=O)N[C@@H](CC(C)C)C(=O)N[C@@H](CCCNC(=N)N)C(=O)N[C@@H](CCCCN)C(=O)N[C@@H](CCCCN)C(=O)N[C@@H](CC(C)C)C(=O)N[C@@H](CCC(N)=O)C(=O)N[C@@H](CC(=O)O)C(=O)N[C@H](C(=O)N[C@@H](Cc1c[nH]cn1)C(=O)N[C@@H](CC(N)=O)C(=O)N[C@@H](Cc1ccccc1)C(=O)O)C(C)C)C(C)C [SEQ ID NO: 45]
half-life [2]: 3.75 days
potency at the PTH receptor ([3]; FIGS. 3A, 3B): decreases the potency
EC50 [3]: 45.5 nM

half-life [2]: 3.04 days
potency at the PTH receptor ([3]; FIGS. 3A, 3B): low potency
Compound: CC[C@H](C)[C@H](NC(=O)[C@H](CCC(=O)O)NC(=O)[C@H](CO)NC(=O)[C@@H](NC(=O)[C@H](CO)NC(=O)CN(C)C(=O)[C@H](N)CCCCNC(=O)CC[C@H](NC(=O)CCCCCCCCCCCCCCCCC(=O)O)C(=O)O)C(C)C)C(=O)N[C@@H](CCC(N)=O)C(=O)N[C@@H](CC(C)C)C(=O)N[C@@H](CCSC)C(=O)N[C@@H](Cc1c[nH]cn1)C(=O)N[C@@H](CC(N)=O)C(=O)N[C@@H](CC(C)C)C(=O)NCC(=O)N[C@@H](CCCCN)C(=O)N[C@@H](Cc1c[nH]cn1)C(=O)N[C@@H](CC(C)C)C(=O)N[C@@H](CC(N)=O)C(=O)N[C@@H](CO)C(=O)N[C@@H](CCSC)C(=O)N[C@@H](CCC(=O)O)C(=O)N[C@@H](CCCNC(=N)N)C(=O)N[C@H](C(=O)N[C@@H](CCC(=O)O)C(=O)N[C@@H](Cc1c[nH]c2ccccc12)C(=O)N[C@@H](CC(C)C)C(=O)N[C@@H](CCCNC(=N)N)C(=O)N[C@@H](CCCCN)C(=O)N[C@@H](CCCCN)C(=O)N[C@@H](CC(C)C)C(=O)N[C@@H](CCC(N)=O)C(=O)N[C@@H](CC(=O)O)C(=O)N[C@H](C(=O)N[C@@H](Cc1c[nH]cn1)C(=O)N[C@@H](CC(N)=O)C(=O)N[C@@H](Cc1ccccc1)C(=O)N[C@@H](CCCCNC(=O)CC[C@H](NC(=O)CCCCCCCCCCCCCCCCC(=O)O)C(=O)O)C(N)=O)C(C)C)C(C)C [SEQ ID NO: 58]

potency at the PTH receptor ([3]; FIGS. 3A, 3B): decreases the potency
EC50 [3]: 45.5 nM
Compound: CC[C@H](C)[C@H](NC(=O)[C@H](CCC(=O)O)NC(=O)[C@H](CO)NC(=O)[C@@H](NC(=O)[C@H](CO)NC(=O)CN(C)C(=O)[C@H](N)CCCCNC(=O)CC[C@H](NC(=O)CCCCCCCCCCCCCCCCC(=O)O)C(=O)O)C(C)C)C(=O)N[C@@H](CCC(N)=O)C(=O)N[C@@H](CC(C)C)C(=O)N[C@@H](CCSC)C(=O)N[C@@H](Cc1c[nH]cn1)C(=O)N[C@@H](CC(N)=O)C(=O)N[C@@H](CC(C)C)C(=O)NCC(=O)N[C@@H](CCCCN)C(=O)N[C@@H](Cc1c[nH]cn1)C(=O)N[C@@H](CC(C)C)C(=O)N[C@@H](CC(N)=O)C(=O)N[C@@H](CO)C(=O)N[C@@H](CCSC)C(=O)N[C@@H](CCC(=O)O)C(=O)N[C@@H](CCCNC(=N)N)C(=O)N[C@H](C(=O)N[C@@H](CCC(=O)O)C(=O)N[C@@H](Cc1c[nH]c2ccccc12)C(=O)N[C@@H](CC(C)C)C(=O)N[C@@H](CCCNC(=N)N)C(=O)N[C@@H](CCCCN)C(=O)N[C@@H](CCCCN)C(=O)N[C@@H](CC(C)C)C(=O)N[C@@H](CCC(N)=O)C(=O)N[C@@H](CC(=O)O)C(=O)N[C@H](C(=O)N[C@@H](Cc1c[nH]cn1)C(=O)N[C@@H](CCC(N)=O)C(=O)N[C@@H](Cc1ccccc1)C(=O)O)C(C)C)C(C)C [SEQ ID NO: 61]

half-life at 1 mg/ml [1]: 1920 min
Compound: C[C@@H](O)[C@H](NC(=O)CNC(=O)[C@H](CCCNC(=N)N)NC(=O)[C@H](CO)NC(=O)[C@H](Cc1c[nH]cn1)NC(=O)[C@@H]1CCCN1C(=O)C(C)(C)N)C(=O)N[C@@H](Cc1ccccc1)C(N)=O [compound 14] (H-[Aib]PHSRGTF-NH2)

half-life at 1 mg/ml [1]: 1200 min
Compound: C[C@@H](O)[C@H](NC(=O)CNC(=O)[C@H](CCCNC(=N)N)NC(=O)[C@H](CO)NC(=O)[C@H](Cc1c[nH]cn1)NC(=O)[C@H]1CCCN1C(=O)C(C)(C)N)C(=O)N[C@@H](Cc1ccccc1)C(N)=O [compound 15] (H-[Aib][dP]HSRGTF-NH2)

half-life at 1 mg/ml [1]: 960 min
Compound: C[C@@H](O)[C@H](NC(=O)CNC(=O)[C@H](CCCNC(=N)N)NC(=O)[C@H](CO)NC(=O)[C@@H](Cc1c[nH]cn1)NC(=O)[C@@H]1CCCN1C(=O)C(C)(C)N)C(=O)N[C@@H](Cc1ccccc1)C(N)=O [compound 16] (H-[Aib]P[dH]SRGTF-NH2)

potency at the PTH receptor ([3]; FIGS. 3A, 3B): decreases the potency
Compound: (dK)K(γE-COC16H32CO2H)GSVSEIQLMHNLGKHLNSMERVEWLRKKLQDVHNF [SEQ ID NO: 10, acylated dipeptide attached to PTH (1-34)]

reduction of in vitro potency by alanine substitution at position 8 [3]: ~100 fold
potency at the PTH receptor ([3]; FIG. 4): decreases PTH activity
Compound: SVSEIQLAHNLGKHLNSMERVEWLRKKLQDVHK(γE-(miniPEG)2-γE-COC16H32CO2H)-OH (SVSEIQLAHNLGKHLNSMERVEWLRKKLQDVHK([γGlu-AEEA-AEEA-γGlu-C18 diacid])-OH; N-terminus assumed; SMILES CC[C@H](C)[C@H](NC(=O)[C@H](CCC(=O)O)NC(=O)[C@H](CO)NC(=O)[C@@H](NC(=O)[C@@H](N)CO)C(C)C)C(=O)N[C@@H](CCC(N)=O)C(=O)N[C@@H](CC(C)C)C(=O)N[C@@H](C)C(=O)N[C@@H](Cc1c[nH]cn1)C(=O)N[C@@H](CC(N)=O)C(=O)N[C@@H](CC(C)C)C(=O)NCC(=O)N[C@@H](CCCCN)C(=O)N[C@@H](Cc1c[nH]cn1)C(=O)N[C@@H](CC(C)C)C(=O)N[C@@H](CC(N)=O)C(=O)N[C@@H](CO)C(=O)N[C@@H](CCSC)C(=O)N[C@@H](CCC(=O)O)C(=O)N[C@@H](CCCNC(=N)N)C(=O)N[C@H](C(=O)N[C@@H](CCC(=O)O)C(=O)N[C@@H](Cc1c[nH]c2ccccc12)C(=O)N[C@@H](CC(C)C)C(=O)N[C@@H](CCCNC(=N)N)C(=O)N[C@@H](CCCCN)C(=O)N[C@@H](CCCCN)C(=O)N[C@@H](CC(C)C)C(=O)N[C@@H](CCC(N)=O)C(=O)N[C@@H](CC(=O)O)C(=O)N[C@H](C(=O)N[C@@H](Cc1c[nH]cn1)C(=O)N[C@@H](CCCCNC(=O)CC[C@H](NC(=O)COCCOCCNC(=O)COCCOCCNC(=O)CC[C@H](NC(=O)CCCCCCCCCCCCCCCCC(=O)O)C(=O)O)C(=O)O)C(=O)O)C(C)C)C(C)C; listed as Homo sapiens) [SEQ ID NO: 93, PTH(1-33), A8, K33(γE-2xOEG-γE-diacidC18)]

potency at the PTH receptor ([3]; FIG. 4): decreases the potency
Compound: k(N-Me)GSVSEIQLMHNLGKHLNSMERVEWLRKKLQDVHK(γE-(miniPEG)2-γE-COC16H32CO2H)-OH [SEQ ID NO: 80]
